Series [1] is described as follows: Aqueous solubility of the compound. The series is classed as physicochemical. To be noted: buffer.
In series [2] the test system is Hepatitis B virus. As to the kind of experiment: Antiviral activity against HBV infected in human HepDES19 cells assessed as reduction in HBV cccDNA production by measuring inhibition of HBeAg secretion incubated for 5 days by ELISA. To be noted: HepDES19, 120 h. The series is classed as functional, organism-based.
The nature of series [3]: Therapeutic index, ratio of CC50 for cytotoxicity against human HepDES19 cells assessed as reduction in cell viability measured after 5 days by CCK-8 assay to IC50 for antiviral activity against HBV infected in human HepDES19 cells assessed as reduction in HBV cccDNA production by measuring inhibition of HBeAg secretion incubated for 5 days by ELISA. Type of series: toxicity, cell-based. To be noted: time 5 day, read-out: Ratio CC50/IC50. On the technique in general: Tetrazolium dyes change colour on reduction, which living cells bring about.

For series [4], the system named is Hepatitis B virus. As to the kind of experiment: Antiviral activity against HBV infected in human HepG2 cells assessed as reduction in HBeAg secretion incubated for 5 days by counter screen assay. The series is classed as functional, organism-based. To be noted: HepG2, 120 h. A general note: Counterscreens check selectivity or assay interference.
Series [5] can be described thus: Cytotoxicity against human HepDES19 cells assessed as reduction in cell viability measured after 5 days by CCK-8 assay. The series is classed as toxicity, cell-based. Conditions: time 5 day.
For series [6], the system named is Hepatitis B virus. As to the kind of experiment: Antiviral activity against HBV infected in human primary hepatocyte cells assessed as reduction in HBV cccDNA production by measuring inhibition of HBsAg secretion measured after 48 hrs by ELISA. The series is classed as functional, organism-based.
Series [7] in a line: Octanol-aqueous buffer distribution coefficient, log D of the compound at pH 7.4 by CAMDIS assay. Type of series: physicochemical.
The nature of series [8]: Permeability of the compound by PAMPA analysis. Type of series: ADME. To be noted: read-out: permeability. On the technique in general: PAMPA measures passive passage across an artificial lipid membrane.
Series [9] can be described thus: Metabolic stability in mouse hepatocytes assessed as intrinsic clearance. Type of series: ADME, cell-based, Hepatocyte. Conditions: read-out: CLH.

In brackets after ≈: the same amount, converted by molar mass.

Broadly, the solubility is how much of the substance goes into solution per volume. Low readings indicate a poorly soluble substance, high ones a readily soluble substance. In general, IC50 refers to the midpoint of a concentration-inhibition curve. As usually defined, the CC50 is the concentration at which the toxic effect on the cells reaches its halfway point. Regarding `O=C(Nc1ccc2c(=O)c3cccc(Cl)c3oc2c1)c1ccccc1[N+](=O)[O-]`, the solubility in series [1] is < 1 µg/mL. Also, the IC50 in series [2] was 10900 nM; in series [4], > 50000 nM. For the same compound, the selectivity ratio at 120 h in [3] was > 9. The CC50 at 120 h in series [5] was > 100000 nM.

What is called logD is the decadic logarithm of the distribution of all forms, ionised or not, between an organic phase and buffer at a given pH. Low values mean a more hydrophilic compound, high ones a more lipophilic compound. `O=C(O)[C@H]1CCN(c2ccc3c(=O)c4cccc(Cl)c4oc3c2)C1`: in series [1], the solubility was > 430 µg/mL. Further, the IC50 in [6] was 1580 nM; in [2], 1920 nM; in series [4], > 50000 nM. Moreover, the logD in series [7] came out at 1.09. Also, the Papp in [8] stood at 3.02 ×10⁻⁶ cm/s.

As for `O=C(Nc1ccc2c(=O)c3cccc(F)c3oc2c1)c1ccncc1`, the solubility in series [1] is < 1 µg/mL. Besides, the figures for the IC50 in series [2] and in [4] were 1140 nM and > 50000 nM, respectively. Moreover, in [3], the selectivity ratio at 120 h is > 134. Further, in [5], the CC50 at 120 h is > 100000 nM.

As to `O=C(Nc1ccc2c(=O)c3ccccc3oc2c1)c1ccccc1F`, in series [1], the solubility is < 1 µg/mL. The values for the IC50 in series [2] and in series [4] were 4030 nM and > 50000 nM, respectively. In series [3], the selectivity ratio at 120 h is > 13. Moreover, the CC50 at 120 h in series [5] is > 50000 nM.

In turn, `O=C(O)C1CCN(c2ccc3c(=O)c4c(Cl)ccc(Cl)c4oc3c2)C1` (centres undefined) returned a solubility in [1] of 32 µg/mL (≈ 84.6 µM). The IC50 in [6] is 1160 nM; in series [2] it was 2360 nM; in [4], > 50000 nM. In addition, the pH-dependent lipophilicity (logD) in [7] is 1.44. Also, in series [9], the CLint scaled was determined as 34.8 mL/min/kg. Further, the Papp in series [8] turned out to be 1.72 ×10⁻⁶ cm/s.

Consider `O=C(Nc1ccc2c(=O)c3cccc(F)c3oc2c1)c1ccccc1Cl`, for which the solubility in series [1] was < 1 µg/mL. Further, the IC50 was 2620 nM in [2] and > 50000 nM in series [4]. Further, in series [3], the selectivity ratio at 120 h is > 38. The CC50 at 120 h in series [5] is > 100000 nM.

`O=C(O)C1CCN(c2ccc3c(=O)c4c(Cl)ccc(Cl)c4oc3c2)C1` (single isomer, unassigned) came in with a solubility in series [1] of 29 µg/mL (≈ 76.7 µM). The IC50 is 2610 nM in series [6], 650 nM in series [2] and > 50000 nM in series [4]. In addition, the logD in series [7] turned out to be 1.42. The CLint scaled in series [9] worked out at 20.3 mL/min/kg. The Papp in [8] was found to be 1.19 ×10⁻⁶ cm/s.

`Cc1cc2c(=O)c3cccc(Cl)c3oc2cc1N1CCC(C(=O)O)C1` (centres undefined): in series [1], the solubility was < 465 µg/mL. The values for the IC50 in series [6], in series [2] and in series [4] were 3000 nM, 750 nM and > 50000 nM, respectively. The logD in [7] turned out to be 1.5. Further, in series [8], the Papp was 1.34 ×10⁻⁶ cm/s.

Take `O=C(Nc1ccc2c(=O)c3cccc(F)c3oc2c1)c1ccccc1`: in [1], the solubility was < 1 µg/mL. The IC50 in [2] was 1890 nM; in series [4], > 50000 nM. The selectivity ratio at 120 h in series [3] is > 53. The CC50 at 120 h in [5] was > 100000 nM. In [8], the Papp came to 0.22 ×10⁻⁶ cm/s.

`O=C(O)C1CCN(c2ccc3c(=O)c4c(F)ccc(Cl)c4oc3c2)C1` (centres undefined) came in with a solubility in [1] of 14 µg/mL (≈ 38.7 µM). The IC50 was 8480 nM in [6], 1460 nM in [2] and > 50000 nM in [4]. In addition, the logD in series [7] is < -0.5. Also, the CLint scaled in [9] came out at 38.4 mL/min/kg. Besides, in [8], the Papp came out at 1.83 ×10⁻⁶ cm/s.

These data come from ChEMBL document CHEMBL5137099, “Discovery of Novel cccDNA Reducers toward the Cure of Hepatitis B Virus Infection” (J Med Chem, 2022).
